The test relates to EU-1. Nature of the test: WST cytotoxicity assay, cancer cell EU-1. It counts as cell-based, human. To be noted: Homo sapiens, EU-1, EU-1; no other cell line named in the cell; read-out: Cancer cell (EU-1) cytotoxicity IC50. Here is the method: This study used two ALL cell lines (EU-1 and EU-3) and three NB cell lines (NB-1643, SHEP1 and LA1-55N). All 5 cancer cell lines were established from pediatric ALL or NB patients and were well-characterized for their expression of MDM2 and p53-status, as reported previously. All cell lines were grown in standard culture medium (RPMI 1640 containing 10% FBS, 2 mmol/L L-glutamine, 50 U penicillin and 50 μg/mL streptomycin) at 37° C. in a humidified atmosphere containing 5% CO2.
The cytotoxic effect of MX 69 and MX69 analogs on cancer cells was determined using the water-soluble tetrazolium salt (WST) assay. Briefly, cells cultured in 96-well microtiter plates were treated with different concentrations of AQ-101 for a 20-h period. WST (25 μg/well) was then added and incubation continued for an additional 4 h, after which optical density (OD) was read with a microplate reader (test wavelength of 450 nm; reference wavelength of 620 nm).

SMILES strings stand for the structures.

For orientation: IC50 means the concentration that inhibits the measured activity by half.

On to `COc1cc(NS(=O)(=O)c2ccc3c(c2)C(=O)CC(c2cccc(C(=O)C(C)C)c2)N3)ccc1C` (centres unmarked) [Compound 69L160, 2-(3-isobutyrylphenyl)-N-(3-methoxy-4-methylphenyl)-4-oxo-1,2,3,4-tetrahydroquinoline-6-sulfonamide], for which the 50% inhibitory concentration (IC50) was 0.54 µM.

Take `CC(=O)c1cccc(C2CC(=O)c3cc(S(=O)(=O)Nc4ccc5c(c4)COC5)ccc3N2)c1` (centres unmarked) [Compound 69L124, 2-(3-acetylphenyl)-N-(1,3-dihydroisobenzofuran-5-yl)-4-oxo-1,2,3,4-tetrahydroquinoline-6-sulfonamide]: the concentration for half-maximal inhibition (IC50) was 0.46 µM.

Turning to `CC(C)C(=O)c1ccc([C@@H]2Nc3ccc(S(=O)(=O)Nc4ccc(C(F)(F)F)c(C(F)(F)F)c4)cc3C3OCC[C@H]32)cc1` (stereo in doubt) [Compound 69L92, N-(3,4-bis(trifluoromethyl)phenyl)-4-(4-isobutyrylphenyl)-2,3,3a,4,5,9b-hexahydrofuro[3,2-c]quinoline-8-sulfonamide], the IC50 was more than 10 µM.

As to `CCc1cccc(NS(=O)(=O)c2ccc3c(c2)[C@H]2OCC[C@H]2C(c2ccc(C(=O)C(C)C)cc2)N3)c1` (some centres unmarked) [Compound 69L148], the concentration for half-maximal inhibition (IC50) was found to be 2.05 µM.

Regarding `Cc1ccc(NS(=O)(=O)c2ccc3c(c2)C2NCC[C@H]2[C@H](c2ccc(S(C)(=O)=O)cc2)N3)cc1C` (some centres unmarked) [Compound 69L44], the IC50 worked out at 44.9 µM.

For the compound `O=S(=O)(Nc1ccc2c(c1)CCO2)c1ccc2c(c1)[C@H]1OCC[C@H]1C(c1ccccc1)N2` (some centres unmarked) [Compound 69L118], the IC50 is 0.15 µM.

Consider `CC(=O)c1ccc([C@H]2Nc3ccc(S(=O)(=O)Nc4ccc(C)c(C)c4)cc3C3NCC[C@H]32)cc1` (some centres unmarked) [Compound 69L49], for which the IC50 is 4.6 µM.

For the compound `CC(=O)c1cccc(NS(=O)(=O)c2ccc3c(c2)[C@H]2OCC[C@H]2[C@H](C2CCCCC2)N3)c1` [Compound 69L144], the IC50 came to 1.53 µM.

On to `CC(C)C(=O)c1ccc(C2Nc3ccc(S(=O)(=O)Nc4ccc(Br)c(Br)c4)cc3[C@H]3OCC[C@@H]23)cc1` (some centres unmarked) [Compound 69L74], for which the IC50 stood at 5.23 µM.

For the compound `COc1cccc(NS(=O)(=O)c2ccc3c(c2)C(=O)CC(c2cccc(C(=O)C(C)C)c2)N3)c1` (centres unmarked) [Compound 69L157, 2-(3-isobutyrylphenyl)-N-(3-methoxyphenyl)-4-oxo-1,2,3,4-tetrahydroquinoline-6-sulfonamide], the IC50 stood at 0.33 µM.

`CC(C)C(=O)c1ccc(C2Nc3ccc(S(=O)(=O)Nc4ccc(Cl)c(Cl)c4)cc3[C@H]3OCC[C@@H]23)cc1` (some centres unmarked) [Compound 69L76]: the half-maximal inhibitory concentration (IC50) worked out at 5.59 µM.

`CCC(=O)c1cccc(NS(=O)(=O)c2ccc3c(c2)C(=O)CC(c2ccc4c(c2)CCO4)N3)c1` (centres unmarked) [Compound 69L129]: the IC50 is 0.65 µM.

Turning to `Cc1cc(NS(=O)(=O)c2ccc3c(c2)[C@H]2OCC[C@H]2C(c2ccc(C(=O)C(C)C)cc2)N3)ccc1Cl` (some centres unmarked) [Compound 69L77], the IC50 was 6.29 µM.

Take `O=S(=O)(Nc1ccc(C(F)(F)F)c(C(F)(F)F)c1)c1ccc2c(c1)C1OCC[C@H]1C(C1CCCCC1)N2` (some centres unmarked) [Compound 69L91]: the IC50 was more than 10 µM.

As to `Cc1ccc(NS(=O)(=O)c2ccc3c(c2)[C@H]2OCCC[C@H]2C(c2ccc(C(=O)O)cc2)N3)cc1C` (some centres unmarked) [Compound 69L10], the IC50 is more than 50 µM.

`CC(=O)Nc1ccc(C2Nc3ccc(S(=O)(=O)Nc4ccc(C)c(C)c4)cc3C3OCC[C@@H]23)cc1` (some centres unmarked) [Compound 69L51]: the IC50 turned out to be 4.5 µM.

In the case of `CCc1cccc(NS(=O)(=O)c2ccc3nc(-c4cccc(C(=O)C(C)C)c4)c(OC)cc3c2)c1` [Compound 69L167], the IC50 amounted to 3.6 µM.

As for `Cc1cc(NS(=O)(=O)c2ccc3c(c2)C2OCC[C@H]2C(C2CCCCC2)N3)ccc1C(F)(F)F` (some centres unmarked) [Compound 69L90], the IC50 amounted to 3.26 µM.

Regarding `Cc1ccc(NS(=O)(=O)c2ccc3c(c2)[C@H]2NCC[C@H]2[C@H](c2ccc(C(=O)C(C)C)cc2)N3)cc1C` [Compound 69L82], the IC50 worked out at 29.7 µM.

Consider `CC(C)C(=O)c1cccc(C2CC(=O)c3cc(S(=O)(=O)Nc4ccc(Cl)c(Cl)c4)ccc3N2)c1` (centres unmarked) [Compound 69L145], for which the IC50 was determined as 3.5 µM.

For `CC(C)C(=O)c1cccc(C2CC(=O)c3cc(S(=O)(=O)Nc4ccc5c(c4)CCO5)ccc3N2)c1` (centres unmarked) [Compound 69L140], the IC50 turned out to be 0.23 µM.

Consider `COC(=O)c1ccc([C@@H]2Nc3ccc(S(=O)(=O)Nc4ccc(C)c(C)c4)cc3[C@H]3c4ccccc4C[C@H]32)cc1` [Compound 69L3], for which the IC50 turned out to be 18.3 µM.

`Cc1ccc(NS(=O)(=O)c2ccc3c(c2)C2OCC[C@@H]2[C@H](c2ccc(C(=O)C(C)C)cc2)N3)cc1C` (some centres unmarked) [Compound 69L52d]: the IC50 worked out at 0.5 µM.

For the compound `Cc1ccc(NS(=O)(=O)c2cc3c(cc2Cl)N[C@@H](c2ccc(S(C)(=O)=O)cc2)[C@@H]2CC=C[C@H]32)cc1C` [Compound 69L24], the IC50 is more than 50 µM.

With `Cc1ccc(NS(=O)(=O)c2ccc3c(c2)[C@H]2c4ccccc4C[C@H]2[C@H](c2ccc(C(=O)O)cc2)N3)cc1C` [Compound 69L6], the IC50 came out at 20.5 µM.

Take `Cc1ccc(NS(=O)(=O)c2ccc3c(c2)C2OCC[C@H]2[C@@H](c2c[nH]c4ccccc24)N3)cc1C` (some centres unmarked) [Compound 69L36]: the IC50 stood at 9.2 µM.

Turning to `CC(=O)c1cccc(NS(=O)(=O)c2ccc3c(c2)C2NCC[C@H]2C(c2ccc(C(=O)C(C)C)cc2)N3)c1` (some centres unmarked) [Compound 69L130], the half-inhibitory concentration (IC50) is more than 10 µM.

As to `COC(=O)c1ccc([C@H]2Nc3cc(Cl)c(S(=O)(=O)Nc4ccc(C)c(C)c4)cc3[C@H]3OCC[C@@H]23)cc1` [Compound 69L25], the IC50 was more than 50 µM.

In the case of `COC(=O)c1ccc([C@@H]2Nc3ccc(S(=O)(=O)Nc4ccc(C)c(C)c4)cc3[C@@H]3OCC[C@H]23)cc1` [Compound 69L29], the IC50 was 2 to 2.7 µM.

For the compound `Cc1ccc(NS(=O)(=O)c2ccc3c(c2Cl)[C@H]2C=CC[C@H]2[C@H](c2ccc(S(C)(=O)=O)cc2)N3)cc1C` [Compound 69L23], the IC50 is 23.4 µM.

`CCO[C@H]1C[C@H](c2ccc(C(=O)OC)cc2)Nc2ccc(S(=O)(=O)Nc3ccc(C)c(C)c3)cc21` [Compound 69L32]: the IC50 is 7.28 µM.

Consider `Cc1ccc(NS(=O)(=O)c2ccc3c(c2)C2OCC[C@@H]2[C@@H](c2ccc(C(=O)C(C)C)cc2)N3)cc1C` (some centres unmarked) [Compound 69L52c], for which the IC50 is 2.4 to 2.5 µM.

As for `Cc1ccc(N(C)S(=O)(=O)c2ccc3c(c2)[C@H]2OCC[C@H]2[C@H](c2ccc(C(=O)C(C)C)cc2)N3)cc1C` (stereo in doubt) [Compound 69L133, N-(3,4-dimethylphenyl)-4-(4-isobutyrylphenyl)-N-methyl-2,3,3a,4,5,9b-hexahydrofuro[3,2-c]quinoline-8-sulfonamide], the IC50 is 1.58 µM.

Regarding `CC(=O)N1CCC([C@@H]2Nc3ccc(S(=O)(=O)Nc4ccc(C)c(C)c4)cc3C3OCC[C@H]32)CC1` (some centres unmarked) [Compound 69L57, 4-(1-acetylpiperidin-4-yl)-N-(3,4-dimethylphenyl)-2,3,3a,4,5,9b-hexahydrofuran[3,2-c]quinolone-8-sulfonamine], the concentration for half-maximal inhibition (IC50) was 10.8 µM.

With `COC(=O)c1ccc([C@H]2Nc3ccc(S(=O)(=O)Nc4ccc(C)c(C)c4)cc3C3NCC[C@H]32)cc1` (some centres unmarked) [Compound 69L35], the IC50 worked out at 4.86 µM.

Turning to `COC(=O)c1ccc([C@@H]2Nc3ccc(S(=O)(=O)Nc4ccc(C)c(C)c4)cc3[C@H]3OCC[C@H]32)cc1` [Compound 69L2], the IC50 was in the range of 3.5 to 5.3 µM.

With `COC(=O)c1ccc([C@@H]2Nc3ccc(S(=O)(=O)Nc4ccc(C)c(C)c4)cc3[C@H]3C=CC[C@H]32)cc1` [Compound 69L16], the IC50 was 4.66 µM.

For the compound `Cc1ccc(NS(=O)(=O)c2ccc3c(c2)C2OCC[C@H]2C(c2ccc(C(=O)C(C)C)cc2)N3)cc1` (stereo in doubt) [Compound 69L85, 4-(4-isobutyrylphenyl)-N-(p-tolyl)-2,3,3a,4,5,9b-hexahydrofuro[3,2-c]quinoline-8-sulfonamide], the half-maximal inhibitory concentration (IC50) amounted to 3.33 µM.

For `Cc1ccc(NS(=O)(=O)c2ccc3c(c2)[C@H]2OCC[C@H]2C(c2ccc(B4OCC(C)(C)CO4)cc2)N3)cc1C` (some centres unmarked) [Compound 69L17], the IC50 was 8.69 µM.

For the compound `CC(=O)c1cccc(NS(=O)(=O)c2ccc3c(c2)C2NCC[C@H]2[C@H](c2ccc(C(=O)C(C)C)cc2)N3)c1` (stereo partly drawn) [69L130 cis], the IC50 is more than 10 µM.

As for `CC(C)c1cccc(NS(=O)(=O)c2ccc3c(c2)C(=O)CC(c2cccc(C(C)C)c2)N3)c1` (centres unmarked) [Compound 69L137], the IC50 was 5 µM.

As to `CC(=O)c1ccc(NS(=O)(=O)c2ccc3c(c2)[C@H]2OCC[C@H]2C(c2ccc(C(C)=O)cc2)N3)cc1` (some centres unmarked) [Compound 69L111], the IC50 stood at 1.37 µM.

With `COC(=O)c1ccc(C2Nc3c(Cl)cc(S(=O)(=O)Nc4ccc(C)c(C)c4)cc3C3OCC[C@@H]23)cc1` (some centres unmarked) [Compound 69L33], the IC50 is more than 50 µM.

On to `O=S(=O)(Nc1ccc2c(c1)CCO2)c1ccc2c(c1)C1OCC[C@H]1C(c1ccc3c(c1)CCO3)N2` (some centres unmarked) [Compound 69L128], for which the IC50 stood at 1.31 µM.

On to `Cc1ccc(N(C)S(=O)(=O)c2ccc3c(c2)[C@H]2OCC[C@H]2C(c2ccc(C(=O)C(C)C)cc2)N3C)cc1C` (stereo in doubt) [Compound 69L131, N-(3,4-dimethylphenyl)-4-(4-isobutyrylphenyl)-N,5-dimethyl-2,3,3a,4,5,9b-hexahydrofuro[3,2-c]quinoline-8-sulfonamide], for which the IC50 came to 1.16 µM.

Consider `Cc1ccc(NS(=O)(=O)c2ccc3c(c2)[C@H]2OCC[C@H]2C(c2ccc(C(=O)O)cc2)N3)cc1C` (some centres unmarked) [Compound 69L4], for which the IC50 was more than 50 µM.

With `CC(C)c1cccc(C2CC(=O)c3cc(S(=O)(=O)Nc4ccc5c(c4)CCO5)ccc3N2)c1` (centres unmarked) [Compound 69L138], the IC50 amounted to 1.4 µM.

The record behind these values is US20240059658A1 (Emory University, priority 2019, published 2024).
